Results taken from patent US20230357261A1, “ARYL HYDROCARBON RECEPTOR LIGANDS AND THEIR ANALOGUES FOR THE PREVENTION AND TREATMENT OF INFLAMMATORY DISORDERS” (The Johns Hopkins University, priority 2020, published 2023).
Entries after “also recorded” stand apart in the source; their conditions may differ. Values belong to the compound of their own block, whether it stands above or below them.

Assays:
mouse NEC model = assay: Experimental NEC in newborn mice (Example 3); assay type: in vivo; details: 20 mg/kg body weight/day for 4 days; for severity of NEC: 20 mg/kg/day
Excerpt: (§1) Experimental NEC was induced in 7-day old mice as we have previously described, Good et al., 2015; Sodhi et al., 2018; Egan et al., 2016, by gavage feeding newborn mice with formula containing Similac Advance infant formula (Abbott Nutrition): Esbilac (PetAg) canine milk replacer, 2:1 ratio, which was supplemented with enteric bacteria made from a stock created from a specimen obtained from an infant with surgical NEC five times per day.
(§2) Additionally, the mice were subjected to hypoxia (5% 02-95% N2) for 10 min in a hypoxia chamber (Billups-Rothenberg) twice daily for 4 days. The compound #169, compound #243, compound #247 or compound #263 administered by oral gavage during the induction of NEC at the dose of 20 mg/kg body weight/day.
(§3) Age-matched breast milk-fed mouse pups were used as healthy controls. Evaluation of ileal histology by H&E staining and expression of pro-inflammatory cytokines by qRT-PCR at a fixed point in the terminal ileum 2-cm proximal to the cecum, were used to determine the disease severity.
(§4) Total RNA was isolated using the RNeasy mini kit (Qiagen) and complementary DNA was synthesized from 0.5 μg RNA using QuantiTect Reverse Transcription kit (Qiagen) following the manufacturer's protocols. The mRNA quantification was performed on the Bio-Rad CFX96 Real-Time System (Bio-Rad) using iTaq™ universal SYBR® Green supermix (Bio-Rad) and the primers listed in Table 2. The relative mRNA expression levels were normalized against the expression of the housekeeping gene ribosomal protein lateral stalk subunit P0 (Rplp0).

AHR [1] = assay: AHR activation (Cyp1a1) in ileum of mice in the NEC model (Example 3); assay type: in vivo; details: mouse NEC model; 20 mg/kg/day by oral gavage for 4 days
Excerpt: as §1, §2, §3, §4

TLR4 = TLR4 signaling in mouse ileal enteroids (LPS-induced Tnf-a qRT-PCR); assay type: cell-based; details: wildtype mouse enteroids; tested compound 40 uM overnight, then LPS 50 μg/mL 6 hours
Experimental: (§5) Primary intestinal crypt cultures (enteroids) were generated from the ileum of neonatal (p7-p11) wild type and Ahr′ mice at as described, Neal et al., 2012, and maintained in Matrigel (Corning). The enteroids were digested and passed using TrypLE Express (Gibco) weekly, and used between passage 3 and 10 for all experiments. The enteroids were pre-treated with I3C ([…], 12 h), A18 (20 μM, 12 h) or human breast milk (100 μL/mL, Innovative Research, prepared by 5-minute-cenrifugation at 12,000 g and then filtration of supernatant through a 0.22-μm filter) and then treated with LPS (50 μg/mL) for 4 hours for further analysis.
(§6) Primary intestinal crypt cultures (enteroids) were generated from the ileum of neonatal (p7-p11) mice at as described, Neal et al., 2012, and maintained in Matrigel (Corning). The enteroids were digested and passed using TrypLE Express (Gibco) weekly, and used between passage 3 and 10 for all experiments. The enteroids were pre-treated with tested compound (40 uM, overnight) and then treated with LPS (50 μg/mL) for 6 hours for further analysis.
as §4

AHR [2] = assay: AHR activation in mouse ileal enteroids (Cyp1a1 qRT-PCR); assay type: cell-based; details: wildtype mouse enteroids, tested compound 40 uM, overnight
Experimental: as §5, §6, §4

- melting point: 198 to 200 °C (dec.)
SMILES: c1ccc2[nH]c(CSc3ncnc4ccccc34)nc2c1

- melting point: 153 to 155 °C
SMILES: Cc1ccc2nc(SCc3nccc(OCC(F)(F)F)c3C)[nH]c2c1 [compound 18, 5-methyl-2-(((3-methyl-4-(2,2,2-trifluoroethoxy)pyridin-2-yl)methyl)thio)-1H-benzo[d]imidazole]

- melting point: 204 to 205 °C
SMILES: Cc1c(OCC(F)(F)F)ccnc1CSc1nc2ccc(C#N)cc2[nH]1 [compound 19, 5-cyano-2-(((3-methyl-4-(2,2,2-trifluoroethoxy)pyridin-2-yl)methyl)thio)-1H-benzo[d]-imidazole]

- melting point: 153 to 155 °C
SMILES: COc1ccnc(CSc2nc3ccc(F)cc3[nH]2)c1C [compound 20, 5-fluoro-2-(((3-methyl-4-methoxypyridin-2-yl)methyl)thio)-1H-benzo[d]imidazole]

- melting point: 102 to 104 °C
SMILES: CCOc1ccnc(CSc2nc3ccc(F)cc3[nH]2)c1C [compound 21, 5-fluoro-2-(((3-methyl-4-ethoxypyridin-2-yl)methyl)thio)-1H-benzo[d]imidazole]

- melting point: 134 to 136 °C
SMILES: Cc1c(Oc2ccccc2)ccnc1CSc1nc2ccc(F)cc2[nH]1 [compound 22, 5-fluoro-2-(((3-methyl-4-phenoxypyridin-2-yl)methyl)thio)-1H-benzo[d]imidazole]

- melting point: 175 to 177 °C
SMILES: Cc1c(OCc2ccccc2)ccnc1CSc1nc2ccc(F)cc2[nH]1 [compound 23, 5-fluoro-2-(((3-methyl-4-benzyloxypyridin-2-yl)methyl)thio)-1H-benzo[d]-imidazole]

- melting point: > 133 °C (dec.)
SMILES: Cc1ccc2nc([S+]([O-])Cc3nccc(OCC(F)(F)F)c3C)[nH]c2c1 (stereo not shown) [compound 24, 5-methyl-2-(((3-methyl-4-(2,2,2-trifluoroethoxy)pyridin-2-yl)methyl)sulfinyl)-1H-benzo[d]-imidazole]

- melting point: 193 to 194 °C
SMILES: Cc1ccc2nc(S(=O)(=O)Cc3nccc(OCC(F)(F)F)c3C)[nH]c2c1 [compound 25, 5-methyl-2-(((3-methyl-4-(2,2,2-trifluoroethoxy)pyridin-2-yl)methyl)sulfonyl)-1H-benzo[d]-imidazole]

- melting point: 192 to 193 °C
SMILES: COc1ccnc(CS(=O)(=O)c2nc3cc(F)ccc3[nH]2)c1C [compound 26, 5-fluoro-2-(((3-methyl-4-methoxypyridin-2-yl)methyl)sulfonyl)-1H-benzo[d]-imidazole]

- melting point: 177 to 178 °C
SMILES: CCOc1ccnc(CS(=O)(=O)c2nc3ccc(F)cc3[nH]2)c1C [compound 27, 5-fluoro-2-(((3-methyl-4-ethoxypyridin-2-yl)methyl)sulfonyl)-1H-benzo[d]-imidazole]

- melting point: 155 to 157 °C
SMILES: Cc1c(Oc2ccccc2)ccnc1CS(=O)(=O)c1nc2ccc(F)cc2[nH]1 [compound 28, 5-fluoro-2-(((3-methyl-4-phenoxypyridin-2-yl)methyl)sulfonyl)-1H-benzo[d]-imidazole]

- melting point: 185 to 188 °C
SMILES: Cc1c(OCc2ccccc2)ccnc1CS(=O)(=O)c1nc2ccc(F)cc2[nH]1 [compound 29, 5-fluoro-2-(((3-methyl-4-benzyloxypyridin-2-yl)methyl)sulfonyl)-1H-benzo[d]-imidazole]

- expression of Cyp1a1 in vivo (ileum) (AHR [1]): did not induce the expression of Cyp1a1
- activation of AHR signaling in mouse enteroids (Cyp1a1, FIG. 15a) (AHR [2]): activated AHR
- activation of AHR signaling in mouse enteroids (Cyp1a1, FIG. 15a) (AHR [2]; listed as #169): activated AHR signaling
SMILES: Cc1cc2c(=O)n(Cc3ccco3)c(SCc3nc4ccccc4[nH]3)nc2s1 [compound #169]
- histological injury (H&E, ileum) (mouse NEC model): reduced histological injury
- severity of NEC (mouse NEC model): did not reduce the severity of NEC; also recorded: didn't not reduce the severity of NEC
- inhibition of TLR4 signaling in mouse enteroids (Tnf-a induction by LPS, FIG. 15b, FIG. 19) (TLR4): significantly inhibited TLR4 signaling

- expression of Cyp1a1 in vivo (ileum) (AHR [1]): did not induce the expression of Cyp1a1
- activation of AHR signaling in mouse enteroids (Cyp1a1, FIG. 15a) (AHR [2]): activated AHR signaling
SMILES: c1ccc2[nH]c(CSc3ncnc4ccccc34)nc2c1 [compound #243]
- histological injury (H&E, ileum) (mouse NEC model): reduced histological injury
- severity of NEC (mouse NEC model): did not reduce the severity of NEC; also recorded: didn't not reduce the severity of NEC
- inhibition of TLR4 signaling in mouse enteroids (Tnf-a induction by LPS, FIG. 15b, FIG. 19) (TLR4): significantly inhibited TLR4 signaling

- activation of AHR signaling in mouse enteroids (Cyp1a1, FIG. 15a) (AHR [2]): activated AHR signaling
SMILES: c1ccc2[nH]c(COc3ncnc4ccccc34)nc2c1 [compound #247]
- histological injury (H&E, ileum) (mouse NEC model): reduced histological injury
- severity of NEC (mouse NEC model): did not reduce the severity of NEC; also recorded: didn't not reduce the severity of NEC
- expression of Cyp1a1 in vivo (ileum) (AHR [1]): significantly induced the expression of Cyp1a1
- inhibition of TLR4 signaling in mouse enteroids (Tnf-a induction by LPS, FIG. 15b, FIG. 19) (TLR4): significantly inhibited TLR4 signaling

SMILES: N#C/C(=C(/N)c1ncnc2ccccc12)c1nc2ccccc2[nH]1 [compound #263]
- expression of IL-1b, IL-6, Tnf-a and Lcn2 in the intestinal epithelium (mouse NEC model): reduced expression
- histological injury (H&E, ileum) (mouse NEC model): reduced histological injury
- severity of NEC (mouse NEC model): significantly reduced the severity of experimental NEC; also recorded: protects against experimental NEC
- expression of Cyp1a1 in vivo (ileum) (AHR [1]): significantly induced the expression of Cyp1a1
- inhibition of TLR4 signaling in mouse enteroids (Tnf-a induction by LPS, FIG. 15b, FIG. 19) (TLR4): significantly inhibited the TLR4 signaling
